Laboratory results from a melting point compilation (Tetko et al.).

melting point [°C]	Structure (SMILES)
179 to 181	O=S(=O)(Cl)c1ccc(-n2cnnn2)cc1
119 to 121	O=C1NCCc2ccc(F)cc21
75 to 77	N#CCc1cc(F)cc2c1OCOC2
156 to 158	O=C(O)c1cnn(-c2ccccn2)c1C(F)(F)F
52 to 54	C1CC(C2CCOCC2)CCN1
219 to 221	COCCn1c(C)c(C)c2cc(C(=O)O)ccc21
159 to 161	Cn1c(=O)oc2cc(C(=O)CCl)ccc21
156 to 158	Cc1sc(C(=O)O)cc1-c1ccc(F)cc1
178 to 180	CS(=O)(=O)Nc1ccc(C(=O)CBr)cc1
143 to 145	CC(=O)NCc1ccc(C(=O)CCl)s1
81 to 83	OCc1ccc(O)c(F)c1
250 to 252	Cc1ccc(C(=O)Nc2nc3ccc(N)cc3s2)s1
119 to 121	CCOC(=O)c1cc2c(C)cc(C)cc2[nH]1
132 to 134	Nc1ccc(S(=O)(=O)Nc2cccc(Cl)c2)cc1
189 to 191	COC(=O)c1cccc(N2CC(=O)NC2=O)c1
183 to 185	O=C(CCl)c1c[nH]c2ccccc12
223 to 225	O=C(CCl)Nc1cc2ccccc2cc1C(=O)O
74 to 76	OC(CC1COCCN1)c1ccccc1 (centres undefined)
143 to 145	Sc1nnnn1-c1ccc2c(c1)OCCO2
182 to 184	Cc1nn(C)c2nc(Cl)c(C=O)cc12
118 to 120	CCCOc1ccc(NS(C)(=O)=O)cc1
43 to 45	CC(C)(C)OC(=O)NCC1CCCC1N (centres undefined)
225 to 227	CC(C)c1cc(C(=O)O)nn1-c1ccncc1

melting point [°C]	Structure (SMILES)
38 to 40	N#Cc1ccc(C(F)(F)F)nc1Cl
102 to 104	N#CCc1cc(Cl)c2c(c1)OCCO2
147 to 149	Cc1cccc(Oc2ncccc2N)c1C
69 to 71	Cc1cc(N)nn1-c1cccc(F)c1
191 to 193	O=C(O)c1ccn(-c2ccc(Cl)c(Cl)c2)n1
63 to 65	OC(CCl)CNCc1ccccc1 (centres undefined)
68 to 70	CCOC(=O)c1oc2c(Br)cccc2c1C
47 to 49	O=C(CNC1CC1)NC1CC1
201 to 203	Cc1ccccc1-n1c(C)nnc1S
144 to 146	Cc1ccc(OCc2nc(N)no2)cc1
169 to 171	O=C1CC(=O)CC2(CCCCC2)C1
74 to 76	CCOC(=O)c1cc(CC)sc1NC(=O)CCl
93 to 95	CCOC(=O)c1ccc(Br)c(S(=O)(=O)Cl)c1
135 to 137	O=C(O)Cc1ccc(S(=O)(=O)CC(F)F)cc1
131 to 133	CC(C)OCc1c(C(=O)O)oc2ccccc12
169 to 171	CC(C)(C)OC(=O)Nc1ccc(C(=O)O)c(Cl)c1
209 to 211	Cn1cc(C(=O)O)c(Cl)n1
128 to 130	NCC(=O)Nc1cccc2ncccc12
50 to 52	CC(C)c1ccc(-c2noc(CCl)n2)cc1
118 to 119	COc1ccc(S(=O)(=O)N2CCCCCC2)cc1N
54 to 56	ClCc1coc(-c2ccccc2Cl)n1
113 to 115	CN(C)C(=O)c1cc(Oc2ccc(N)cc2)ccn1
182 to 184	CC(=O)Nc1[nH]c(=O)ccc1[N+](=O)[O-]

melting point [°C]	Structure (SMILES)
76 to 78	NC(=O)CCCCCl
139 to 141	Cc1cc(C(=O)CCl)c(C)n1-c1ccc(Cl)c(C(F)(F)F)c1
95 to 97	CN1CCCN(c2nc3ccccc3cc2CO)CC1
210 to 212	O=C(c1cc(Br)c[nH]1)N1CCCC1
82 to 84	Nc1ccnn1Cc1ccccc1
82 to 84	O=S(=O)(Cl)c1ccc(OCC2CCCCC2)cc1
38 to 40	COC(=O)C(C)Oc1ccc(F)cc1Br (centres undefined)
157 to 159	O=C1C(=O)N(CO)c2ccccc21
219 to 221	Cn1c(=O)c2cc(N)cnc2n(C)c1=O
135 to 137	CC(=O)c1ccc(-c2ccc(Cl)c(Cl)c2)cc1
145 to 147	CNC(C)c1ccc(S(N)(=O)=O)cc1 (centres undefined)
109 to 111	CN1CCN(S(N)(=O)=O)C(c2ccccc2)C1 (centres undefined)
199 to 201	c1n[nH]c2cc3c(cc12)OCO3
46 to 48	COc1ccc(CN2CCCC2)cc1N
59 to 61	CNS(=O)(=O)CCC(=O)OCc1ccccc1
38 to 42	ClCc1nc(-c2cccc(Cl)c2)no1
221 to 224	O=C(O)c1ccc(Cl)c(S(=O)(=O)NC2CC2)c1
83 to 85	O=C(c1nc2ccccc2s1)C(F)(F)F
200 to 202	O=C1Nc2c(ccc(Cl)c2F)C1=O
274 to 276	Cn1cnc(-c2ccc(C(=O)O)cc2)n1
144 to 146	C/C(=N\O)c1scnc1C
121 to 123	NCc1ccc(S(=O)(=O)N2CCOCC2)cc1
211 to 213	O=C(Cc1ccc(O)cc1)NC1CCNCC1

melting point [°C]	Structure (SMILES)
240 to 242	Cn1c(CC(N)=NO)nc2ccccc21
230 to 232	NC(=O)c1cc(CCO)c(C(F)(F)F)[nH]c1=O
64 to 66	CN(C)c1ccc(C#N)cn1
149 to 151	Cc1c(N)cccc1CS(C)(=O)=O
140 to 142	CC(NS(=O)(=O)Cc1ccc(CN)cc1)C(N)=O (centres undefined)
178 to 180	CS(=O)(=O)N1CCN(c2ccc(N)cn2)CC1
186 to 188	NC(=O)Nc1ccccc1[N+](=O)[O-]
85 to 87	COC(=O)c1ccccc1CS(=O)(=O)Cl
62 to 64	CC(C)(C)OC(=O)Nc1ccncc1C=O
108 to 110	COC(=O)c1ccc(CNC(=O)CCl)cc1
89 to 91	ClCc1nc(Cl)c2c3c(sc2n1)CCCC3
135 to 137	Cc1cc(C)cc(C=CC(=O)O)c1
131 to 134	CC(=O)Oc1cccc(C(=O)O)c1
157 to 159	O=C(O)CSc1nnc(NC2CCCCC2)s1
278 to 280	Cc1nn(-c2ccccc2)c2ncc(C(=O)O)cc12
122 to 124	Nc1cccc(Cl)c1-n1cncn1
169 to 171	O=C1CCc2cc(Br)ccc2N1
85 to 87	OCc1ccc(O)c(Cl)c1
157 to 159	COC(=O)c1cnc(NC2CC2)s1
69 to 71	CS(=O)(=O)c1cccc(O)c1
206 to 208	COc1ccc(NC(=O)C(=O)O)cc1
97 to 99	Cc1ccc(N2CCC(N)C2=O)cc1 (centres undefined)
219 to 221	CCOC(=O)c1oc(N)nc1C

melting point [°C]	Structure (SMILES)
73 to 75	Cc1cc(Cl)c2cc(F)c(F)c(F)c2n1
176 to 180	Nc1nc(-c2ccc3c(c2)OCO3)cs1
59 to 61	O=S(=O)(Cl)C1=Cc2ccccc2CC1
114 to 116	Nc1cccc(Oc2ccnc3ccccc23)c1
146 to 148	CC(=O)N1CCN(c2ccc(CO)cc2)CC1
89 to 91	Cc1ccc(NC(=O)C2CSCN2)c(C)c1 (centres undefined)
51 to 53	Clc1ccc2c(c1)NCCCS2
222 to 224	O=C(Nc1cccc(F)c1)C1CSCN1 (centres undefined)
115 to 117	Nc1ccc(C(=O)NCCO)cc1
222 to 224	O=C(O)c1cccnc1NC1CCCC1
223 to 225	O=C1COc2cc(S(=O)(=O)Cl)c(Br)cc2N1
125 to 127	COc1ccc(S(=O)(=O)Nc2cccc(CN)c2)cc1
239 to 241	CCc1nc(C(=O)O)c[nH]1
251 to 253	O=c1[nH]c2ccc(NCc3ccc(F)cc3)cc2[nH]1
195 to 197	CCc1ccc(N(C(C)=O)c2nc(CCl)cs2)cc1
114 to 116	c1n[nH]cc1C1CCCCN1 (centres undefined)
165 to 167	N#Cc1ccc(N2CCN(c3ccccn3)CC2)nc1
158 to 160	N#Cc1cccc(CS(=O)(=O)NCC(=O)O)c1
69 to 71	O=Cc1ccc(-n2ccnc2)c(F)c1
134 to 136	O=C(O)c1ccccc1Oc1cccnc1
151 to 153	COc1ccc(NC(=O)Cn2cc(N)cn2)cc1
175 to 177	Nc1nncc(-c2cc(Cl)ccc2Cl)n1
164 to 166	O=C1CNC(=O)N1c1cccc([N+](=O)[O-])c1

melting point [°C]	Structure (SMILES)
260 to 262	Cc1n[nH]c(C(F)(F)Cl)c1C(=O)O
78 to 80	CC(Cc1ccccc1)n1cccc1C(=O)O (centres undefined)
139 to 141	O=C(O)C1CCCN(C(=O)Nc2ccccc2F)C1 (centres undefined)
39 to 41	CC(O)(C(=O)O)C1CC1 (centres undefined)
168 to 170	O=C(O)CCN1C(=O)COc2ccccc21
175 to 177	FC(F)(F)Cn1c(S)nnc1N1CCOCC1
145 to 147	O=C(O)Cn1c(=O)n(C2=CCCCC2)c2ccccc21
188 to 190	CN1C(=O)CC(C(N)=O)C1c1cccc(Cl)c1 (centres undefined)
128 to 130	CC(C)C(NCC(F)(F)F)C(=O)O (centres undefined)
74 to 76	Cc1cc(CO)ncn1
159 to 161	CCCOc1nc2ccccc2cc1/C=C/C(=O)O
42 to 44	CSc1ccc(C#N)cc1N
94 to 96	COc1ccc(C2=CCNC2)cc1
174 to 176	Nc1nc(CCl)nc2sc3c(c12)CCCC3
159 to 161	CC(=O)c1ccc(C(=O)O)c(F)c1
85 to 87	COC(=O)C1Cc2ccccc2CN1C(=O)CCl (centres undefined)
168 to 170	O=C(O)c1cccc(-n2cnnn2)c1
206 to 208	CCCCc1ccc(NS(=O)(=O)c2cccc(C(=O)O)c2)cc1
45 to 47	CCOc1ccc(OC)cc1N
141 to 143	Oc1nnnn1-c1ccc(Cl)cc1
82 to 84	COc1cc(C=O)ccc1OS(=O)(=O)c1cc(C)ccc1C

Structure (SMILES)	melting point [°C]
O=C1NC2(CCNCC2)NC12CCCCC2	276 to 278
[N-]=[N+]=Nc1ccc(Cl)c(Cl)c1	32 to 34
CC(C)(C)C(Br)C(=O)O (centres undefined)	62 to 64
Nc1ccc(CN2CCN(Cc3ccccc3)CC2)cc1	96 to 98
O=[N+]([O-])c1ncn(CCO)n1	76 to 78
O=C(CCl)NCCc1cccs1	< 17
c1ccc(CN2CCN(Cc3ccccc3)CC2)cc1	89 to 91
c1ccc(CC2CCN(Cc3ccccc3)CC2)cc1	65 to 67
